Source: patent US20170340693A1, “DISLODGEMENT AND RELEASE OF HSC USING ALPHA 9 INTEGRIN ANTAGONIST AND CXCR4 ANTAGONIST” (COMMONWEALTH SCIENTIFIC AND INDUSTRIAL RESEARCH ORGANISATION, priority 2014, published 2017)

Experiments:
[1] = tested on: α4β1 or α9β1 LN18 cells; assay: Association and dissociation (off-rate) kinetics in vitro; format: binding, human
Protocol: Eppendorf vials containing α4β1 or α9β1 LN18 cells (0.5×10^6 cells) were treated with 50 nM of R-BC154 (IXb) (100 μl in TBS-2% FBS containing either 1 mM CaCl2—MgCl2 or 1 mM MnCl2 at 37° C. until for 30 min, washed once with the relevant binding buffer and dry pelleted. The cells were treated with 500 nM of an unlabelled competing inhibitor (100 μl, in TBS-2% FBS containing either 1 mM CaCl2—MgCl2 or 1 mM MnCl2) at 37° C. for the times indicated (0, 2.5, 5, 15, 30, 45, 60 min). The cells were diluted with cold TBS-2% FBS (containing the relevant cations), pelleted by centrifugation, washed once and resuspended (˜200 μl) in binding buffer for flow cytometric analysis. Mean channel fluorescence was plotted against time and the data was fitted to either a one-phase or two-phase exponential decay function using GraphPad Prism 6. The off-rate, koff was extrapolated from the curves.
Eppendorf vials containing α4β1 or α9β1 LN18 cells (0.5×10^6 cells) in 50 μl TBS-2% FBS containing either 1 mM CaCl2—MgCl2 or 1 mM MnCl2 were pre-activated in a heating block for 20 min at 37° C. […] Mean channel fluorescence was plotted against time and the data was fitted to either a one-phase or two phase association function using GraphPad Prism 6. The observed on-rate, kobs was extrapolated from the curves and kon was calculated using […]

[2] = tested on: murine BM progenitors (LSK) and HSC (LSKSLAM); assay: In vitro R-BC154 (IXb) binding to murine central and endosteal BM cells; format: cell-based, mice
From the text: Populations of endosteal and central murine bone marrow cells were isolated as previously described in J. Grassinger, et al Cytokine, 2012, 58, 218-225 and D. N. Haylock et al Stem Cells, 2007, 25, 1062-1069. Briefly, one femur, tibia and iliac bone were excised and cleaned of muscle. After removing the epi- and metaphyseal regions, bones were flushed with PBS-2% FBS to obtain central bone marrow cells. Flushed long bones and epi- and metaphyseal fragments were pooled and crushed using a mortar and pestle. Bone fragments were digested with Collagenase I (3 mg/ml) and Dispase II (4 mg/ml) at 37° C. in an orbital shaker at 750 rpm. After 5 min, bone fragments were washed once with PBS and once with PBS 2% FBS to collect the endosteal bone marrow cells. Peripheral blood was collected by retro-orbital puncture and red blood cells were lysed using NH4Cl lysis buffer for 5 min at room temperature. Isolated cell populations were washed with PBS 2% FBS and then stained for flow cytometry as described in Antibody Cocktails above.
For in vitro labelling experiments, 5×10^6 BM cells from C57 mice, conditional α4^−/−/α9^−/− mice and humanised NODSCIDIL2Rγ^−/− mice and human cord blood MNCs were treated with R-BC154 (IXb) (up to 300 nM) in PBS (0.5% BSA) or TBS (0.5% BSA) containing either 1 mM CaCl2/MgCl2 (activating) or 10 mM EDTA (deactivating) at 40×10^6 cells/ml for 20 mins at 4° C. Cells were washed with cold PBS (2% FBS) and then immunolabelled as described in “Antibody Cocktails” prior to flow cytometric analysis. For in vivo experiments, C57BL/6 mice, α4^−/−/α9^−/− vav-cre mice and humanised NODSCIDIL2Rγ^−/− mice received either intravenous or subcutaneous injections of R-BC154 (IXb) (5-10 mg/kg) at 100 ul/10 gm mouse weight and analysed as described above.
To determine whether integrin activation is required for binding to both central and endosteal BM progenitors (Lin^−Sca-1^+ckit^+ cells; LSK) and HSC (LSKCD150^+CD48^− cells; LSKSLAM) (FIG. 3a), R-BC154 (IXb) binding was assessed in the presence of 1 mM Ca^2+/Mg^2+ (FIG. 3b).

CCN(CC)c1ccc2c(-c3ccc(S(=O)(=O)NCc4cn(C5C[C@@H](C(=O)N[C@@H](Cc6ccc(OC(=O)N7CCCC7)cc6)C(=O)O)N(S(=O)(=O)c6ccccc6)C5)nn4)cc3S(=O)(=O)[O-])c3ccc(=[N+](CC)CC)cc-3oc2c1 (stereo partly shown) [R-BC154 (IXb)]
off-rates for α9β1 compared to α4β1 [1]: significantly reduced off-rates
binding affinities relative to BOP ([1]; association and dissociation kinetics studies in vitro): lower binding affinities
binding to central versus endosteal LSK and LSKSLAM ([2]; 1 mM Ca2+/Mg2+): greater binding to central LSK and LSKSLAM was observed relative to their endosteal counterparts
binding to α4−/−/α9−/− LSK and LSKSLAM cells ([2]; BM of α4flox/flox α9flox/flox vav-cre mice): essentially absent
binding to HSC and progenitors on co-treatment with EDTA ([2]; EDTA (deactivating)): completely abolished activity
binding to endosteal and central LSK ([2]; absence of both activating cations and EDTA): binding to endosteal LSK cells was still evident but not to central LSK
binding to lineage committed lymphoid and myeloid cells relative to LSKSLAM and LSK ([2]; exogenous activation): significantly lower relative to LSKSLAM
